Source: patent US20210284691A1, “CBX8 CHROMDOMAIN INHIBITORS AND THE USES THEREOF” (Purdue Research Foundation, priority 2019, published 2021)
Square brackets hold non-standard residues; d marks the D form. Peptide text beside a SMILES is read from it. * marks the point of attachment. Tyr(3-Cl) = N[C@@H](Cc1ccc(O)c(Cl)c1)C(=O)O; Benzoyl(3,5-Cl2) = O=C(c1cc(Cl)cc(Cl)c1)*; Lys(Et2) = CCN(CC)CCCC[C@H](N)C(=O)O; Gly(cPent) = N[C@H](C(=O)O)C1CCCC1; NH(propargyl) = C#CCN*

What was measured:
[1] = test system: KLK3/TMPRSS2/AR/CBX2 expression; assay: Transcriptional fold change in LNCaP_NED cells; assay type: cell-based; conditions: 10 μM or 50 μM, 48 hours
Source text: FIG. 12A). Neuroendocrine differentiation (NED) of prostate cancer induced by androgen deprivation. Representative pictures of LNCaP cells treated with normal media or charcoal-stripped serum (CSS) media for 6 days to induce neuroendocrine differentiation (LNCaP_NED). FIG. 12B). Transcriptional fold changes of KLK3/TMPRSS2/ENO2/CHGA were quantified normalized to control gene YWHAZ upon CSS media treatment for 6 or 9 days. FIG. 12C). Western blotting of CBX paralogs in LNCaP and LNCaP_NED cells generated from 14-day CSS treatment. FIG. 12D). Cell proliferation of LNCaP_NED following 5 days incubation with 2 or 10 μM SW2_152F. DMSO was used as negative control. FIG. 12E). LNCaP_NED cells were treated with 10 μM SW2_152F for 24 h-96 h. Cell morphology pictures were captured starting from 24 h. Average cell size were plotted at 24 h or 48 h for both DMSO group and compound treated group. FIG. 12F). LNCaP_NED cells were treated with 10 μM or 50 μM SW2_152F for 48 hours. […] Binding of H3K27me3 and CBX2 at specific genomic sites (KLK3/TMPRSS2, e: enhancer, p: promoter) were evaluated using chromatin immunoprecipitation-qPCR. For all experiments in the figure, error bars represent SEM n=3 biological replicates, p-values were calculated using two-tailed Student's t-test, *=p<0.05, **=p<0.01, ***=p<0.001, ****=p<0.0001. […]

[2] = biological target: T1, CBX7 bulk chromatin binding (Homo sapiens, UniProt O95931); assay: Sequential salt extraction (SSE) in HEK293T cells; assay type: cell-based; conditions: 10 μM
T1 construct: endogenous in cells; host or cells: Hs68 fibroblasts (A17); HEK293T (A20)
T1 sequence (O95931 whole entry): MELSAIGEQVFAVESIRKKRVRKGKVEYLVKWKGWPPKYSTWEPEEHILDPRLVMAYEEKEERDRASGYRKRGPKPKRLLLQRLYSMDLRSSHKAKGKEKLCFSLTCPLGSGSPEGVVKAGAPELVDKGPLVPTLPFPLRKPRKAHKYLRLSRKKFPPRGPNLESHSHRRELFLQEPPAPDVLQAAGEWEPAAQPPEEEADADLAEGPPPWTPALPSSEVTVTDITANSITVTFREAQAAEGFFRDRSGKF

- CBX7 binding to chromatin, SSE [2]: No effect
SMILES: C#CCNC(=O)[C@H](CO)NC(=O)[C@H](CCCCN(CC)CC)NC(=O)[C@@H](NC(=O)[C@@H](NC(=O)[C@H](Cc1ccc(O)c(Cl)c1)NC(=O)c1cc(Cl)cc(Cl)c1)C1CCCC1)[C@@H](C)CC [SW2_152F] ({Benzoyl(3,5-Cl2)}-[Tyr(3-Cl)][Gly(cPent)]I[Lys(Et2)]S-{NH(propargyl)})
- CBX2 expression [1]: remained unchanged
- expression of AR and AR-target genes (TMPRSS2 and KLK3) [1]: significantly increased
